The term pIC50 denotes the IC50 on a negative log10 scale, so that one unit is a factor of ten. A higher pIC50 goes with a low IC50.

This experiment has as its target Genome polyprotein (West Nile virus, UniProt P06935). Briefly: inhibitors of WNV NS2B-NS3 protease, dose response, biochemical, confirmation (AID 653).

pIC50: −log10 of the molar value. Where a name gives a salt, the structure may show the parent alone.

Chain of Genome polyprotein (P06935 1371-1501 limits assumed): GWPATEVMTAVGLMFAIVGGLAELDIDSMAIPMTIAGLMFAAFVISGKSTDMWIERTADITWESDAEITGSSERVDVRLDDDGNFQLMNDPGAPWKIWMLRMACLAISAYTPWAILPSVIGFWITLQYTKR
Chain of Genome polyprotein (P06935 1502-2120 limits assumed): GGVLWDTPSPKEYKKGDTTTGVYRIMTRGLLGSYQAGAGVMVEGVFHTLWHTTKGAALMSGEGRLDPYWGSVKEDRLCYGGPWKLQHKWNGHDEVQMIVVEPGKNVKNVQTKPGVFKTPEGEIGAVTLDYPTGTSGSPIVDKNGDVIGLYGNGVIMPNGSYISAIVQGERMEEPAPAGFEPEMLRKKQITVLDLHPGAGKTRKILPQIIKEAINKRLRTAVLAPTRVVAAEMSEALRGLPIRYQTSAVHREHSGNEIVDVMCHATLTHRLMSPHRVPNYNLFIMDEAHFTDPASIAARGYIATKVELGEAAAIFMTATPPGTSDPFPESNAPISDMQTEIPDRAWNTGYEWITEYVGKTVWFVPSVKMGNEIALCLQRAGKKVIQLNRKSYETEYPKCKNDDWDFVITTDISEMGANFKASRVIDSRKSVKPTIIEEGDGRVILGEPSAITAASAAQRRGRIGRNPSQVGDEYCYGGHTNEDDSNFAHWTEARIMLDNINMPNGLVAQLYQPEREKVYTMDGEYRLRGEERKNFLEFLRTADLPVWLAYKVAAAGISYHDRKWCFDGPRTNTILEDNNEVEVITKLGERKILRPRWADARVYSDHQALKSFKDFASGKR

`NC(=O)c1ccc(-n2nnnc2SCc2ccc(F)cc2)cc1` [4-[5-[(4-fluorobenzyl)thio]tetrazol-1-yl]benzamide] gave a pIC50 of under 4.30. Regarding `Cc1oc2c(CN(C)C)c(O)ccc2c(=O)c1-c1ccc2ccccc2n1` [8-[(dimethylamino)methyl]-2-methyl-7-oxidanyl-3-quinolin-2-yl-chromen-4-one], the pIC50 is under 4.30. The same measure for `COc1ccc(N2CCN(C(CNC(=O)Oc3ccccc3)c3cccnc3)CC2)cc1` (configuration not stated) [MLS000094397]: under 4.30; for `COc1ccc(C(=O)c2oc3ccc(Br)cc3c2NC(C)=O)cc1` [MLS000115316]: under 4.30; for `COc1ccc2[nH]c(C(=O)O)c(CCNC(C)=O)c2c1` [3-[2-(acetylamino)ethyl]-5-methoxy-1H-indole-2-carboxylic acid]: under 4.30. In the case of `CC(CC1(O)C(=O)N(Cc2ccccc2)c2ccccc21)N=O` (configuration not stated) [1-benzyl-3-(2-hydroximinopropyl)-3-hydroxy-oxindole] it was under 4.30. For the compound `CCN(CC)CCNC(=O)c1ccc(N)cc1` [4-amino-N-[2-(diethylamino)ethyl]benzamide;hydrochloride], the pIC50 is under 4.30. As to `CCOC(=O)CNC(=O)C(Cc1ccccc1)NS(=O)(=O)c1cccs1` (configuration not stated) [2-[[1-oxo-3-phenyl-2-(thiophen-2-ylsulfonylamino)propyl]amino]acetic acid ethyl ester], the pIC50 was under 4.30. For `COc1ccc(S(=O)(=O)n2nc(OC(=O)c3ccccc3Br)cc2N)cc1` [2-bromobenzoic acid [5-amino-1-(4-methoxyphenyl)sulfonyl-3-pyrazolyl] ester], the pIC50 was 6.53. In the case of `COc1ccc(-c2cn3ccsc3n2)cc1` [6-(4-methoxyphenyl)imidazo[2,1-b][1,3]thiazole] it was under 4.30; in that of `CCN1CCN(CNC(=O)c2cnccn2)CC1` [MLS000082173], under 4.30; in that of `Cc1ccc(NC(=O)C2CCN(S(=O)(=O)c3cccc4nonc34)CC2)nc1` [1-(2,1,3-benzoxadiazol-4-ylsulfonyl)-N-(5-methyl-2-pyridinyl)-4-piperidinecarboxamide], under 4.30. As for `CCn1c(SCC(=O)Nc2ccc3c(c2)c2ccccc2n3CC)nnc1-c1ccco1` [MLS000050867], the pIC50 is 4.32. In the case of `O=C(c1cc2ccccc2oc1=O)N1CCN(c2ccc(N3CCOCC3)nn2)CC1` [3-[4-(6-morpholin-4-ylpyridazin-3-yl)piperazin-1-yl]carbonylchromen-2-one] it was under 4.30; in that of `Nc1cc(OC(=O)c2cccs2)nn1S(=O)(=O)c1ccccc1` [SMR000021562], 5.62; in that of `Brc1cccc(-c2cnc3n2CCCCC3)c1` [3-(3-bromophenyl)-6,7,8,9-tetrahydro-5H-imidaz[1,2-a]azepine;hydrochloride], under 4.30. The same measure for `NC(=O)NC1CCCc2c1[nH]c1ccc(Cl)cc21` (configuration not stated) [SMR000091683]: under 4.30; for `CC(C)c1nnc(NC(=O)c2c(O)n3c4c(cccc4c2=O)CCC3)s1` [1-Hydroxy-3-oxo-6,7-dihydro-3H,5H-pyrido[3,2,1-ij]quinoline-2-carboxylic acid (5-isopropyl-[1,3,4]thiadiazol-2-yl)-amide]: under 4.30. Take `Nc1ncnc2c1ncn2[C@@H]1O[C@H](CO)[C@@H](O)[C@H]1O` [[U-14C]adenosine]: the pIC50 was under 4.30. In the case of `CCN(Cc1ccccc1)C(=O)c1ccccc1C` [MLS000058902] it was under 4.30; in that of `COc1ccc(OC)c(C2C(C(N)=O)C(C)=Nc3nc(-c4cccc(Cl)c4)nn32)c1` (configuration not stated) [2-(3-chlorophenyl)-7-(2,5-dimethoxyphenyl)-5-methyl-1,7-dihydro-[1,2,4]triazolo[1,5-a]pyrimidine-6-carboxamide], under 4.30; in that of `CCC(=O)N1CCc2cc(Br)cc(S(=O)(=O)CC(=O)OC)c21` [2-(5-bromo-1-propionyl-indolin-7-yl)sulfonylacetic acid methyl ester], under 4.30. In the case of `COc1ccc(N2CCN(C(=O)c3cn(C)c(=O)c4c3c3ccccc3n4C)CC2)cc1` [4-[4-(4-methoxyphenyl)piperazin-1-yl]carbonyl-2,9-dimethyl-pyrido[3,4-b]indol-1-one] it was under 4.30; in that of `Cc1cc(N2CCC(C(=O)NC3CCCCC3)CC2)nc(-c2ccccc2)n1` [1-(6-Methyl-2-phenyl-pyrimidin-4-yl)-piperidine-4-carboxylic acid cyclohexylamide], under 4.30; in that of `COc1ccc(S(=O)(=O)n2nc(OC(=O)c3ccco3)cc2N)cc1` [MLS000033887], 6.26.

For `OCCNC1=NCCN1` [SMR000038385], the pIC50 was under 4.30.

In the case of `Cc1nn(-c2ccccc2)c2sc(C(=O)OC3CCOC3=O)cc12` (configuration not stated) [(2-oxidanylideneoxolan-3-yl) 3-methyl-1-phenyl-thieno[2,3-c]pyrazole-5-carboxylate], the pIC50 was under 4.30. The same measure for `COC(=O)c1ccc(CSc2nnc(SCc3ccc(C(=O)OC)o3)s2)o1` [5-[[[5-[(5-carbomethoxy-2-furyl)methylthio]-1,3,4-thiadiazol-2-yl]thio]methyl]furan-2-carboxylic acid methyl ester]: under 4.30; for `Cc1cnc(NC(=O)C(C)N2C(=O)C3CC=CCC3C2=O)s1` (configuration not stated) [2-(1,3-diketo-3a,4,7,7a-tetrahydroisoindol-2-yl)-N-(5-methylthiazol-2-yl)propionamide]: under 4.30; for `Nc1ccc(S(=O)(=O)Nc2ccccn2)cc1` [MLS000069725]: under 4.30. In the case of `CCS(=O)(=O)N1Cc2ccccc2CC1C(=O)N1CCN(c2cccc(C)c2C)CC1` (configuration not stated) [MLS000053522] it was 4.41; in that of `CC[N+](C)(C)c1cccc(O)c1` [Edrophonium Chloride, 3], under 4.30; in that of `CC(=O)Nc1nc2ccccc2n1CCOc1ccccc1Cl` [MLS000034055], under 4.30. In the case of `NS(=O)(=O)c1cc2c(cc1Cl)N=CNS2(=O)=O` [MLS000028398], the pIC50 was under 4.30.

With `COc1cccc(CNC(=O)C2CCN(S(=O)(=O)c3ccc4c(c3)CCC(=O)N4)CC2)c1` [1-[(2-keto-3,4-dihydro-1H-quinolin-6-yl)sulfonyl]-N-m-anisyl-isonipecotamide], the pIC50 is under 4.30.

As to `CCCCOCCCNC(=O)N[C@@H](CC(C)C)C(=O)O` [(2S)-2-(3-butoxypropylcarbamoylamino)-4-methyl-pentanoic acid], the pIC50 was under 4.30.

With `CC(=O)N1CCN(C(=O)c2cccc(S(=O)(=O)Nc3ccc(C)cc3)c2)CC1` [3-(4-acetylpiperazine-1-carbonyl)-N-(4-methylphenyl)benzenesulfonamide], the pIC50 is under 4.30. In the case of `CCN(CC(=O)NC(C)C)C(=O)CCNC(=O)c1ccc(Cl)cc1` [4-chloranyl-N-[3-[ethyl-[2-oxidanylidene-2-(propan-2-ylamino)ethyl]amino]-3-oxidanylidene-propyl]benzamide] it was under 4.30; in that of `CCc1nc(N)c(C#N)c(-c2cccn2C)c1C` [2-amino-6-ethyl-5-methyl-4-(1-methylpyrrol-2-yl)pyridine-3-carbonitrile], under 4.30; in that of `Cn1cc(C(=O)NCN2CCCCC2)c2ccccc21` [1-methyl-N-(1-piperidinylmethyl)-3-indolecarboxamide;hydrochloride], under 4.30.

On to `COc1ccccc1-n1c(C)nnc1SCC(=O)Nc1cc(C)cc(C)c1` [MLS000032151], for which the pIC50 is under 4.30. The same measure for `Nc1cc(OC(=O)c2cccs2)nn1S(=O)(=O)c1ccc(F)cc1` [5-amino-1-[(4-fluorophenyl)sulfonyl]-1H-pyrazol-3-yl thiophene-2-carboxylate]: 5.94; for `O=S(=O)(c1ccc(Cl)cc1)N1CN2CCN(C2)C1` [3-(4-Chloro-benzenesulfonyl)-1,3,5-triaza-bicyclo[3.2.1]octane]: under 4.30; for `C=CCC1(CN2CCCCCC2=O)C(=O)NC(=O)NC1=O` [5-[(2-oxidanylideneazepan-1-yl)methyl]-5-prop-2-enyl-1,3-diazinane-2,4,6-trione]: under 4.30. The same measure for `COc1ccc(Br)cc1C=c1sc2nc(-c3ccco3)nn2c1=O` [5-[(5-bromanyl-2-methoxy-phenyl)methylidene]-2-(furan-2-yl)-[1,3]thiazolo[3,2-b][1,2,4]triazol-6-one]: under 4.30; for `CCOc1ccccc1N(CC(=O)NC1CCCC1)C(=O)CCC(=O)Nc1cc(C)on1` [MLS000032086]: under 4.30; for `COc1ccc2nc(NC(=O)CSc3nc4cccnc4n3C)sc2c1` [MLS000072990]: under 4.30.

On to `N#[N+][CH-]C(=O)OCC(N)C(=O)O` [(E)-1-[(2S)-2-amino-2-carboxy-ethoxy]-2-diazonio-ethenolate], for which the pIC50 is under 4.30. The same measure for `CCSc1nnc(NC(=O)NCC(F)(F)F)s1` [1-(5-ethylsulfanyl-1,3,4-thiadiazol-2-yl)-3-(2,2,2-trifluoroethyl)urea]: under 4.30; for `CCn1nc(C(=O)O)c(=O)c2cc3c(cc21)OCO3` [CINOXACIN]: under 4.30; for `CN(C)c1nc(N(C)C)nc(N(C)C)n1` [ALTRETAMINE]: under 4.30. In the case of `CC(C)CCN1CC(C(=O)NCc2ccc(F)cc2)CC1=O` (configuration not stated) [MLS000096189] it was under 4.30; in that of `Cn1nnc2cc(C(=O)NC3CCCCC3)ccc21` [MLS000063766], under 4.30; in that of `CCCCC[C@H](O)C=C[C@H]1C=CC(=O)[C@@H]1C/C=C\CCCC(=O)O` [(Z)-7-[(1R,5S)-2-oxidanylidene-5-[(E,3S)-3-oxidanyloct-1-enyl]cyclopent-3-en-1-yl]hept-5-enoic acid], under 4.30. The same measure for `CCN1CCN(C(=O)N[C@@H](C(=O)N[C@@H]2C(=O)N3[C@@H]2SC(C)(C)[C@@H]3C(=O)O)c2ccccc2)C(=O)C1=O` [PIPERACILLIN SODIUM SALT]: under 4.30. On to `COC(=O)c1[nH]c2cc(OC)ccc2c1NC(=O)c1ccc2c(c1)OCO2` [MLS000081144], for which the pIC50 was under 4.30.

With `CCn1cc(C(=O)Nc2cccc(C(=O)OC)c2)c(=O)c2ccc(C)nc21` [3-[(1-Ethyl-7-methyl-4-oxo-1,4-dihydro-[1,8]naphthyridine-3-carbonyl)-amino]-benzoic acid methyl ester], the pIC50 was under 4.30.

The record behind these values is BindingDB's records for doi:10.7270/Q2222S6W (University of Pittsburgh, 2007).
